Laboratory results taken from ChEMBL document CHEMBL5260821, “2-Aminothiophene scaffolds: Diverse biological and pharmacological attributes in medicinal chemistry” (Eur J Med Chem, 2017).

Experiments:
PANC-1 [1] = assay: Induction of cell cycle arrest in human PANC-1 cells assessed as accumulation of cells in G0/G1 phase; format: functional
HeLa [2] = assay: Antiproliferative activity against human HeLa cells assessed as reduction in cell viability at 10 to 50 uM relative to control; format: functional; settings: dose 10-50 µM
PANC-1 [3] = assay: Antiproliferative activity against human PANC-1 cells assessed as reduction in cell viability at 25 to 50 uM relative to control; format: functional; settings: dose 25-50 µM
HeLa [4] = assay: Induction of cell cycle arrest in human HeLa cells assessed as accumulation of cells in subG1 phase; format: functional
T47D = assay: Antiproliferative activity against human T47D cells assessed as reduction in cell viability measured for 48 hr by MTT assay; format: functional, cell-based
Influenza A virus [5] = assay: Antiviral activity against influenza A virus; format: functional, organism-based
Influenza A virus [6] = assay: Antiviral activity against Influenza A virus H3N2 subtype; format: functional, organism-based
HCT-15 = assay: Antiproliferative activity against human HCT-15 cells assessed as reduction in cell viability measured for 48 hr by MTT assay; format: functional, cell-based; settings: HCT-15, 48 h
Escherichia coli = assay: Antibacterial activity against Escherichia coli ATCC 11229 assessed as inhibition zone; format: functional
Influenza A virus [7] = assay: Antiviral activity against Influenza A virus A/WSN/33(H1N1) strain; format: functional, organism-based
Candida albicans = assay: Antifungal activity against Candida albicans ATCC 10231 assessed as inhibition zone; format: functional
A549 = assay: Antiproliferative activity against human A549 cells assessed as reduction in cell viability measured for 48 hr by MTT assay; format: functional, cell-based; settings: A549, 48 h
Staphylococcus aureus = assay: Antibacterial activity against Staphylococcus aureus ATCC 6538 assessed as inhibition zone; format: functional
CCRF-CEM = assay: Antiproliferative activity against human CEM cells assessed as reduction in cell viability; format: functional, cell-based
Neprilysin = Neprilysin (Homo sapiens, UniProt P08473); assay: Partial agonist activity at human neprilysin expressed in CHP-212 cells; format: cell-based
PC-3 = assay: Antiproliferative activity against human PC-3 cells assessed as reduction in cell viability measured for 48 hr by MTT assay; format: functional, cell-based; settings: PC-3, 48 h

Chain of Neprilysin (P08473 whole entry): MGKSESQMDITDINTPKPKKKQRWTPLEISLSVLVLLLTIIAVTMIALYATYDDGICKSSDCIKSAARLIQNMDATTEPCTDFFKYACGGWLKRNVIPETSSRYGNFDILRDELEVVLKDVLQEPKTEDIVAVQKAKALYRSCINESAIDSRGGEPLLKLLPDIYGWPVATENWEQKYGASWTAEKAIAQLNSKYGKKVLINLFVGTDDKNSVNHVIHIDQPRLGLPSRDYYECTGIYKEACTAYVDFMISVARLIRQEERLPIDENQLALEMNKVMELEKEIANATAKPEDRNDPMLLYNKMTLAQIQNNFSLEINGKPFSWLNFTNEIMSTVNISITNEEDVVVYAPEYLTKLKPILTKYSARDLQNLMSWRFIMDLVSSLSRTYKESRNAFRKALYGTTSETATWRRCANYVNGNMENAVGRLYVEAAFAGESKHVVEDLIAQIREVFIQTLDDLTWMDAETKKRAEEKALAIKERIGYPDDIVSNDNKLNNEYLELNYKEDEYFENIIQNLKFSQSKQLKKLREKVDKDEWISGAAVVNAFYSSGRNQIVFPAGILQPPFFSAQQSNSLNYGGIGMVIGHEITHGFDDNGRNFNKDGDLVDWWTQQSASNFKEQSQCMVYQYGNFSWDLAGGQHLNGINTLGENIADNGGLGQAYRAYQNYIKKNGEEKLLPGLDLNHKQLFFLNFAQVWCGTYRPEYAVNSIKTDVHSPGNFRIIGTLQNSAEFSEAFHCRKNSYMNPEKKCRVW

Question: Which results are given for N#Cc1c(/N=C/c2ccc(F)cc2)sc2c1CCCC2?
Answer: Activity (PANC-1 [1]): 9.3%; Activity (HeLa [2]): 50%; Activity (PANC-1 [3]): 68%; Activity (HeLa [4]): 12.05%

Question: What does the source list for CCOC(=O)c1c(N)sc(/N=C/c2ccc([N+](=O)[O-])o2)c1C(=O)OCC?
Answer: IC50 (T47D): 21.4 µM; IC50 (Influenza A virus [5]): 0.79 µM; IC50 (Influenza A virus [6]): 2.4 µM; IC50 (HCT-15): 10.2 µM; inhibition zone (IZ) (Escherichia coli): 16 mm; IC50 (Influenza A virus [7]): 0.94 µM; inhibition zone (IZ) (Candida albicans): >22 mm; IC50 (A549): 22.8 µM; inhibition zone (IZ) (Staphylococcus aureus): 22 mm

Question: Which IC50 (CCRF-CEM) does the source give for CCc1ccc(CSCc2cc(C(=O)OC)c(N)s2)cc1 here?
Answer: 0.34 µM

Question: Which EC50 (Neprilysin) does the source give for CCCN(CC(F)(F)F)c1cc(Br)c(C#N)s1 here?
Answer: 0.005 µM

Question: For COC(=O)c1cc(CSCc2ccc(C(C)C)cc2)sc1N, which IC50 (CCRF-CEM) is on record?
Answer: 0.46 µM

Question: With CCOC(=O)c1c(N)sc(/N=C/c2ccc([N+](=O)[O-])s2)c1C(=O)OCC as the molecule, how does the IC50 (Influenza A virus [5]) read?
Answer: 10.5 µM

Question: What about the IC50 (Influenza A virus [6]) of the same molecule?
Answer: 3.72 µM

Question: And the IC50 (HCT-15)?
Answer: 6.1 µM

Question: What about the IC50 (Influenza A virus [7]) of the same molecule?
Answer: 3.56 µM

Question: And the IC50 (PC-3)?
Answer: 10.9 µM

Question: And the IC50 (A549)?
Answer: 1.3 µM

Question: How did the Activity (PANC-1 [1]) turn out when COc1ccc(Br)cc1/C=N/c1sc2c(c1C#N)CCCCC2 was run?
Answer: 28.2%

Question: And the Activity (HeLa [2])?
Answer: 35%

Question: And the Activity (PANC-1 [3])?
Answer: 50%

Question: What about the Activity (HeLa [4]) of the same molecule?
Answer: 6.2%
